Results taken from a compilation of properties of binary mixtures (doi:10.1016/j.molliq.2022.120536).

Experiment: xn = mol fraction of the nth substance listed
Conditions: 100 kPa

CC[N+](CC)(CC)CC.O=S(=O)([O-])C(F)(F)F + CC#N
electrical conductivity [S/m]
Conditions	x1 = 0.02	x1 = 0.05	x1 = 0.08	x1 = 0.0997	x1 = 0.1199	x1 = 0.1498	x1 = 0.2	x1 = 0.25	x1 = 0.2995
293.15 K	–	–	4.63	4.72	4.54	4.22	3.51	2.89	2.58
298.15 K	2.66	4.19	4.71	–	4.7	4.38	3.62	3.14	2.82
303.15 K	2.77	4.39	4.84	5	4.96	4.48	3.78	3.39	3.08
308.15 K	2.87	4.57	5.08	5.24	5.22	–	4.06	3.65	3.35
313.15 K	2.97	4.76	5.31	5.49	5.48	5.04	4.34	3.91	3.62
318.15 K	3.08	–	5.54	5.73	5.74	5.32	4.61	4.17	–
323.15 K	3.18	5.11	5.77	5.98	5.99	5.6	4.89	4.44	–
328.15 K	3.28	5.29	6	6.22	6.25	5.88	5.17	4.7	4.44
333.15 K	3.38	5.46	6.23	6.45	6.5	6.15	–	–	–
338.15 K	3.47	5.64	6.45	6.69	6.76	6.42	5.72	5.22	5.01
343.15 K	3.58	5.81	6.67	6.92	7.02	6.7	6	5.5	5.28
348.15 K	–	5.97	–	7.16	7.27	–	6.26	5.77	5.55
